Patent publication US9493448B2, “Cycloalkane derivatives” (Daiichi Sankyo Company, Limited, priority 2012, dated 2016)

Legend:
[1] = tested on: painful diabetic neuropathy; conditions: cited from earlier work
[2] = tested on: mice and rats affected by thermal hyperalgesia; test: Thermal hyperalgesia assay; type: in vivo; conditions: oral administration, constant dose, against the vehicle treatment group; latency to escape behaviors after thermal stimulation of hind paw;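 note: measurement times set by the study director and not disclosed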
hNav 1.7 = hNav 1.7 (Homo sapiens (Human), UniProt Q15858); test: Electrophysiological evaluation, automated patch clamp IonWorks Quattro (Population Patch Clamp mode); type: cell-based; conditions: HEK293A cells stably expressing hNav 1.7/β1/β2; response to second depolarization pulse, pre-pulse potential set to V1/2; read-out: hNav1.7 IC50
Chain of hNav 1.7 (Q15858 whole entry): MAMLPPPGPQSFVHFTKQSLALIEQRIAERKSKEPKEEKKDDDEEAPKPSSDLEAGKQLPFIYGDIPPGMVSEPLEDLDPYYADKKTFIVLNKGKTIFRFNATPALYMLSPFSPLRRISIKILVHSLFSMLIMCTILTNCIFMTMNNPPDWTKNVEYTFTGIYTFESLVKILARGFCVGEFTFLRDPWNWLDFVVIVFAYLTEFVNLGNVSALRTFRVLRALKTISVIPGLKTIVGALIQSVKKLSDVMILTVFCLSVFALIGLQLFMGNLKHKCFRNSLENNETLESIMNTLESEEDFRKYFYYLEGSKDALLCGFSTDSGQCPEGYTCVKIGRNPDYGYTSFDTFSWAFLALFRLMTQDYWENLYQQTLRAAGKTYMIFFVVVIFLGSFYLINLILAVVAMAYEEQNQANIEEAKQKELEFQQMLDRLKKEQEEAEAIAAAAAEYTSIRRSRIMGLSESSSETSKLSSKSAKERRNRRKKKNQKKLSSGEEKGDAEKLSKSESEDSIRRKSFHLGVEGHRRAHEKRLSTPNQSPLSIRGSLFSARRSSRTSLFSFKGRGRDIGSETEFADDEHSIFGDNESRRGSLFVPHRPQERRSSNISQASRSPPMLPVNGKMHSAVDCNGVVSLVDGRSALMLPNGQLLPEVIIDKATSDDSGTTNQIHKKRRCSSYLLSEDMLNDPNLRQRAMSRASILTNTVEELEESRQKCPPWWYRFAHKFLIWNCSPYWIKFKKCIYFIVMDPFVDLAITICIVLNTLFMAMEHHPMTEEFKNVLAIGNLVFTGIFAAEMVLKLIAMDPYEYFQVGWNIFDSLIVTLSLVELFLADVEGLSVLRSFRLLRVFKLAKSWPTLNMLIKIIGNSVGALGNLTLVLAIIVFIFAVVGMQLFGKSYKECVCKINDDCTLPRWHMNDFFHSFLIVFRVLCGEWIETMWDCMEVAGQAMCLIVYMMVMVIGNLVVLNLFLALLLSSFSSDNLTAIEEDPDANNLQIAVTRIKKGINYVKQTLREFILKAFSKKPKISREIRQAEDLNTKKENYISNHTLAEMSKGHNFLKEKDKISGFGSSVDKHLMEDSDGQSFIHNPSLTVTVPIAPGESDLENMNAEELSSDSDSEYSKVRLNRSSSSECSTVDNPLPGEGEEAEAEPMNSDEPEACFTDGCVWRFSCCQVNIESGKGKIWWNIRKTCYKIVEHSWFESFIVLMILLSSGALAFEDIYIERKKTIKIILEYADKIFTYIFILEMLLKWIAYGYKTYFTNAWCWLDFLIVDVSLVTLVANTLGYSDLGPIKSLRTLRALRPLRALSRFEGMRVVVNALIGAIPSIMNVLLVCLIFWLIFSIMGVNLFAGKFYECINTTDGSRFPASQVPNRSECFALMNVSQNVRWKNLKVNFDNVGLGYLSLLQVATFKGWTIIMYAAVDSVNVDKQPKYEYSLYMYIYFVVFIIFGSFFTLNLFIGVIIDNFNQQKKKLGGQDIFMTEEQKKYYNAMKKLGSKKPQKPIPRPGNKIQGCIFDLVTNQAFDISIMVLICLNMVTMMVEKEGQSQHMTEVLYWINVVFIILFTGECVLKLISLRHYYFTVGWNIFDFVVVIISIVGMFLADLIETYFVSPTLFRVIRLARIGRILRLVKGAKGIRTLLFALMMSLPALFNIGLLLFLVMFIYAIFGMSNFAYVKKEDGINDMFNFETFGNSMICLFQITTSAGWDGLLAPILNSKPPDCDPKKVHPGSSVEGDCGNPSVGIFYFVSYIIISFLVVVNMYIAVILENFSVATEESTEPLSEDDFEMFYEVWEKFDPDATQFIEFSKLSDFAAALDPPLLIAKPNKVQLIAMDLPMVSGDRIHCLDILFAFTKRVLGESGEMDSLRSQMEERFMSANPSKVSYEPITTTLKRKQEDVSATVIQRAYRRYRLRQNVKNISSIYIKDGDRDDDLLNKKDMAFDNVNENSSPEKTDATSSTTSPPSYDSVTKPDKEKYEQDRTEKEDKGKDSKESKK
Chain of hNav 1.7 (Q07699 19-218 partner): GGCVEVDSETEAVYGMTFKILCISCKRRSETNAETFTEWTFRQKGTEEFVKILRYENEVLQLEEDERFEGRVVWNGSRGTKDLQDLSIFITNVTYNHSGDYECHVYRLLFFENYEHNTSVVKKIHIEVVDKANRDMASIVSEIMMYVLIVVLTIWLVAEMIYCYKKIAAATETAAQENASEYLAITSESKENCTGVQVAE
Chain of hNav 1.7 (O60939 30-215 partner): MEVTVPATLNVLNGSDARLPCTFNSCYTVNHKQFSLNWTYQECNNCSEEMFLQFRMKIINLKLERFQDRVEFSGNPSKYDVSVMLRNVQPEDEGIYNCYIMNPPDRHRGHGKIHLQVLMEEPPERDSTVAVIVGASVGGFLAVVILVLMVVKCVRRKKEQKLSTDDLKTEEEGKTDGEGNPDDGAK

In the case of `CC(C)C[C@H](CN)CC(=O)O` [pregabalin], the “effective therapeutic ratio based on self-evaluation of patients” value [1] is given as “approximately 50%”.

In the case of `Cn1nccc1[C@H]1C[C@H](OCc2ccccc2)C[C@@H]1Oc1cc(F)c(S(=O)(=O)Nc2ccncn2)cc1F` (relative stereo) [Example 98, 4-{[(1S*,2R*,4S*)-4-(Benzyloxy)-2-(1-methyl-1H-pyrazol-5-yl)cyclopentyl]oxy}-2,5-difluoro-N-(pyrimidin-4-yl)benzenesulfonamide], the “Ratio of improving pain score (%)” value [2] is reported as “C (“C” when the rate was 0 to 30%)” and the IC50 (hNav 1.7) is reported as 0.046 µM.

For `O=S(=O)(Nc1ccncn1)c1ccc(O[C@H]2CC(F)(F)CC[C@@H]2c2cn[nH]c2)cc1F` (relative stereo) [Example 147, 4-{[(1S*,2R*)-5,5-Difluoro-2-(1H-pyrazol-4-yl)cyclohexyl]oxy}-2-fluoro-N-(pyrimidin-4-yl)benzenesulfonamide], the “Ratio of improving pain score (%)” value [2] was “C (“C” when the rate was 0 to 30%)” and the IC50 (hNav 1.7) was 0.6 µM.

With `CCn1nccc1[C@@H]1CCC[C@H]1Oc1ccc(S(=O)(=O)Nc2ccncn2)c(F)c1F` [Example 118, 4-{[(1R,2S)-2-(1-Ethyl-1H-pyrazol-5-yl)cyclopentyl]oxy}-2,3-difluoro-N-(pyrimidin-4-yl)benzenesulfonamide] the “Ratio of improving pain score (%)” value [2] was “A (“A” when the rate was 61 to 100%)” and the IC50 (hNav 1.7) was 21 µM.

In the case of `Cn1nccc1[C@H]1CCC(C)(C)C[C@@H]1Oc1cc(F)c(S(=O)(=O)Nc2ccncn2)cc1F` (relative stereo) [Example 72, 4-{[(1S*,2R*)-5,5-Dimethyl-2-(1-methyl-1H-pyrazol-5-yl)cyclohexyl]oxy}-2,5-difluoro-N-(pyrimidin-4-yl)benzenesulfonamide], the “Ratio of improving pain score (%)” value [2] is reported as “C (“C” when the rate was 0 to 30%)” and the IC50 (hNav 1.7) is reported as 0.036 µM.

With `CO[C@@H]1C[C@H](Oc2cc(F)c(S(=O)(=O)Nc3ccncn3)cc2F)[C@@H](c2ccnn2C)C1` (relative stereo) [Example 120, 2,5-Difluoro-4-{[(1S*,2R*,4S*)-4-methoxy-2-(1-methyl-1H-pyrazol-5-yl)cyclopentyl]oxy}-N-(pyrimidin-4-yl)benzenesulfonamide] the “Ratio of improving pain score (%)” value [2] was “C (“C” when the rate was 0 to 30%)” and the IC50 (hNav 1.7) was 0.27 µM.

In the case of `Cc1cc(S(=O)(=O)Nc2ccncn2)c(F)cc1O[C@H]1CCCC[C@@H]1c1c[nH]nc1N` (relative stereo) [Example 68, 4-{[(1S*,2R*)-2-(3-Amino-1H-pyrazol-4-yl)cyclohexyl]oxy}-2-fluoro-5-methyl-N-(pyrimidin-4-yl)benzenesulfonamide], the “Ratio of improving pain score (%)” value [2] is reported as “B (“B” when the rate was 31 to 60%)” and the IC50 (hNav 1.7) is reported as 0.086 µM.

In the case of `CCn1nccc1[C@H]1CCC[C@@H]1Oc1ccc(S(=O)(=O)Nc2ccncn2)c(F)c1` (relative stereo) [Example 115, 4-{[(1S*,2R*)-2-(1-Ethyl-1H-pyrazol-5-yl)cyclopentyl]oxy}-2-fluoro-N-(pyrimidin-4-yl)benzenesulfonamide], the “Ratio of improving pain score (%)” value [2] is reported as “A (“A” when the rate was 61 to 100%)” and the IC50 (hNav 1.7) is reported as 0.58 µM.

With `Cn1nccc1[C@H]1CCC[C@@H]1Oc1cc(F)c(S(=O)(=O)Nc2ccnc(F)n2)c(F)c1` (relative stereo) [Example 111, 2,6-Difluoro-N-(2-fluoropyrimidin-4-yl)-4-{[(1S*,2R*)-2-(1-methyl-1H-pyrazol-5-yl)cyclopentyl]oxy}benzenesulfonamide] the “Ratio of improving pain score (%)” value [2] was “A (“A” when the rate was 61 to 100%)” and the IC50 (hNav 1.7) was 0.03 µM.

In the case of `Cn1nccc1[C@H]1C[C@H](O)CC[C@@H]1Oc1cc(F)c(S(=O)(=O)Nc2ccncn2)cc1Cl` [Example 165, 5-Chloro-2-fluoro-4-{[(1S,2R,4R)-4-hydroxy-2-(1-methyl-1H-pyrazol-5-yl)cyclohexyl]oxy}-N-(pyrimidin-4-yl)benzenesulfonamide], the “Ratio of improving pain score (%)” value [2] is reported as “B (“B” when the rate was 31 to 60%)” and the IC50 (hNav 1.7) is reported as 0.04 µM.

In the case of `Cc1cc(S(=O)(=O)Nc2ccncn2)c(F)cc1O[C@H]1CC(F)(F)CC[C@@H]1c1cn[nH]c1` [Example 143, 4-{[(1S,2R)-5,5-Difluoro-2-(1H-pyrazol-4-yl)cyclohexyl]oxy}-2-fluoro-5-methyl-N-(pyrimidin-4-yl)benzenesulfonamide], the “Ratio of improving pain score (%)” value [2] is reported as “B (“B” when the rate was 31 to 60%)” and the IC50 (hNav 1.7) is reported as 0.021 µM.

In the case of `CCn1nccc1[C@H]1CCC[C@@H]1Oc1cc(F)c(S(=O)(=O)Nc2ccncn2)c(F)c1` (relative stereo) [Example 50, 4-{[(1S*,2R*)-2-(1-Ethyl-1H-pyrazol-5-yl)cyclopentyl]oxy}-2,6-difluoro-N-(pyrimidin-4-yl)benzenesulfonamide], the “Ratio of improving pain score (%)” value [2] is reported as “B (“B” when the rate was 31 to 60%)” and the IC50 (hNav 1.7) is reported as 0.047 µM.

With `Cc1cc(S(=O)(=O)Nc2ccncn2)c(F)cc1O[C@H]1CC(F)(F)CC[C@@H]1c1ccnn1C` (relative stereo) [Example 90, 4-{[(1S*,2R*)-5,5-Difluoro-2-(1-methyl-1H-pyrazol-5-yl)cyclohexyl]oxy}-2-fluoro-5-methyl-N-(pyrimidin-4-yl)benzenesulfonamide] the “Ratio of improving pain score (%)” value [2] was “B (“B” when the rate was 31 to 60%)” and the IC50 (hNav 1.7) was 0.089 µM.

For `Cn1nccc1[C@H]1CCCCC[C@@H]1Oc1cc(F)c(S(=O)(=O)Nc2ccncn2)cc1F` (relative stereo) [Example 42, 2,5-Difluoro-4-{[(1S*,2R*)-2-(1-methyl-1H-pyrazol-5-yl)cycloheptyl]oxy}-N-(pyrimidin-4-yl)benzenesulfonamide], the “Ratio of improving pain score (%)” value [2] was “C (“C” when the rate was 0 to 30%)” and the IC50 (hNav 1.7) was 0.091 µM.

With `Cn1nccc1[C@H]1CC(C)(C)CC[C@@H]1Oc1cc(F)c(S(=O)(=O)Nc2ccncn2)cc1F` (relative stereo) [Example 67, 4-{[(1S*,2R*)-4,4-Dimethyl-2-(1-methyl-1H-pyrazol-5-yl)cyclohexyl]oxy}-2,5-difluoro-N-(pyrimidin-4-yl)benzenesulfonamide] the “Ratio of improving pain score (%)” value [2] was “C (“C” when the rate was 0 to 30%)” and the IC50 (hNav 1.7) was 0.043 µM.
